The target of assay [1] is Carbonic anhydrase 1 (Homo sapiens, UniProt P00915). In words: CA Activity Assay. As to conditions: pH 7.4; 25 °C. The protocol: (§1) CA activity was assayed in inhibition studies by following the change in absorbance at 348 nm of 4-nitrophenylacetate (NPA) to 4-nitrophenylate ion over a period of 3 min at 25°C using a spectrophotometer according to the method described by Verpoorte et al. [Verpoorte et al., J. Biol. Chem., 242:4221-4229] The enzymatic reaction, in a total volume of 1 mL, contained 50 mM Tris-SO4 buffer (pH = 7.4), 3 mM 4-nitrophenylacetate and enzyme solution. A reference measurement was done by using the same cuvette without enzyme solution. The inhibitory effects of some synthesized sulfonamide derivatives on CA enzyme activity purified from human erythrocyte were tested on three samples at each concentration used.
Carbonic anhydrase 1, sequence (P00915 whole entry): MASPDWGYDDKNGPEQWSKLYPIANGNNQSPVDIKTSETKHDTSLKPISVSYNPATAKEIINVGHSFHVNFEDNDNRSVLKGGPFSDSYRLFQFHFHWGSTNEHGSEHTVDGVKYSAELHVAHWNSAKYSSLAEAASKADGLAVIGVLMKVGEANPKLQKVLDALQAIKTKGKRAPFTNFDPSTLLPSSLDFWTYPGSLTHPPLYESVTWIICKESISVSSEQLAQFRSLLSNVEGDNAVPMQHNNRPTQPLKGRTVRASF

Assay [2] addresses Carbonic anhydrase 2 (Homo sapiens, UniProt P00918). In words: CA Activity Assay. Particulars: pH 7.4; 25 °C. The protocol: as §1

Drawing on BindingDB's records for doi:10.3109/14756366.2011.651465 (Dumlupinar University, 2013), this text covers Ki for 7 molecules.

For orientation: Ki means a dissociation constant, usually derived from enzyme kinetics or from competition with a known ligand. Consider `NS(=O)(=O)c1ccc(NC(=O)c2nn(-c3cccc(NN=C(C(=O)c4ccccc4)C(=O)c4ccccc4)c3)c(-c3ccccc3)c2C(=O)c2ccccc2)cc1` [4-benzoyl-1-(3-(2-(1,3-dioxo-1,3-diphenylpropan-2-ylidene)hydrazinyl)phenyl)-5-phenyl-N-(4-sulfamoylphenyl)-1H-pyrazole-3-carboxamide (6)], for which the Ki turned out to be 4100 nM in assay [1] and 1940 nM in assay [2].
For `CC(=O)/C(=N\Nc1cccc(-n2nc(C(=O)Nc3ccc(S(N)(=O)=O)cc3)c(C(=O)c3ccccc3)c2-c2ccccc2)c1)C(=O)c1ccccc1` [4-benzoyl-1-(3-((3-hydroxy-1-oxo-1-phenylbut-2-en-2-yl)diazenyl)phenyl)-5-phenyl-N-(4-sulfamoylphenyl)-1Hpyrazole-3-carboxamide (7)] the same measures were 521 nM and 166 nM.
In the case of `CC(=O)C(=NNc1cccc(-n2nc(C(=O)Nc3ccc(S(N)(=O)=O)cc3)c(C(=O)c3ccccc3)c2-c2ccccc2)c1)C(C)=O` [4-benzoyl-1-(3-((2-hydroxy-4-oxopent-2-en-3-yl)diazenyl)phenyl)-5-phenyl-N-(4-sulfamoylphenyl)-1H-pyrazole-3-carboxamide (5)], the Ki in assay [1] was found to be 160 nM; in assay [2], 595 nM.
For `CCOC(=O)/C(=N/Nc1cccc(-n2nc(C(=O)Nc3ccc(S(N)(=O)=O)cc3)c(C(=O)c3ccccc3)c2-c2ccccc2)c1)C(=O)c1ccccc1` [Ethyl-2-(2-(3-(4-benzoyl-5-phenyl-3-(4-sulfamoylphenylcarbamoyl)-1H-pyrazol-1-(phenyl)hydrazono)-3-oxo-3-phenylpropanoate (8)] the same measures were 2900 nM and 8240 nM.
For `NS(=O)(=O)c1ccc(NC(=O)c2nn(-c3cccc([N+](=O)[O-])c3)c(-c3ccccc3)c2C(=O)c2ccccc2)cc1` [4-benzoyl-1-(3-nitrophenyl)-5-phenyl-N-(4-sulfamoylphenyl)-1H-pyrazole-3-carboxamide (2)] the same measures were 215 nM and 337 nM.
As for `[N-]=[N+]=Nc1cccc(-n2nc(C(=O)Nc3ccc(S(N)(=O)=O)cc3)c(C(=O)c3ccccc3)c2-c2ccccc2)c1` [1-(3-azidophenyl)-4-benzoyl-5-phenyl-N-(4-sulfamoylphenyl)-1H-pyrazole-3-carboxamide (9)], the Ki worked out at 129 nM in assay [1] and 64 nM in assay [2].
The like results for `Nc1cccc(-n2nc(C(=O)Nc3ccc(S(N)(=O)=O)cc3)c(C(=O)c3ccccc3)c2-c2ccccc2)c1` [1-(3-aminophenyl)-4-benzoyl-5-phenyl-N-(4-sulfamoylphenyl)-1H-pyrazole-3-carboxamide (3)] were, in that order, 108 nM and 55 nM.
